Test results reported in patent publication US4826813A, “4'-Methyl-β-mercapto-β,β-cyclopentamethylenepropionic acid vasopressin antagonists” (SmithKline Beckman Corporation, priority 1987, dated 1989).
*1 amine or outer side, *2 acyl side, *3 side chain or, on linkers, in order; H or OH if unused. Where a SMILES comes first, the peptide text is derived from it. Bridges are numbered along the chain shown (N, C = ends). [ ]: non-standard residue; d: D form. X2 = C[C@H]1CC[C@@](CC(=O)[*:1])(S[*:2])CC1

How the values were obtained:
[1] = target: vasopressin stimulated adenylate cyclase (V2 -receptors) (Sus scrofa, UniProt P32307); test: biochemical
Method: (§1) V2 -antagonistic activity toward the natural anti-diuretic hormone (anti-ADH activity) is determined, in vitro, in the medullary tissue of hog or human kidneys and, in vivo, in the hydropenic rat. The in vitro assay procedures for vasopressin stimulated adenylate cyclase activation or vasopressin binding activity are described by F. Stassen et al., J. Pharmacology and Experimental Therapeutics 223, 50-54 (1982). V1 -antagonistic activity is determined by procedures using the rat thoracic aorta tissue and plasma membranes of rat liver. These procedures are described in the noted Stassen publication and in a publication at the 1st International Conference on Diuretics, Miami, Fla., March (1984). Oxytocin antagonism is determined as described by W. Sawyer et al., Endocrinology 106, 81 (1979).
(§2) The hydropenic rat screen and the hog kidney assay are known to the art, Huffman et al., U.S. Pat. No. 4,469,679.

[2] = target: vasopressin receptors (V2 -receptors) (Sus scrofa, UniProt P32307); test: biochemical
Method: as §1, §2

Sequence of vasopressin receptors (V2 -receptors) (P32307 whole entry): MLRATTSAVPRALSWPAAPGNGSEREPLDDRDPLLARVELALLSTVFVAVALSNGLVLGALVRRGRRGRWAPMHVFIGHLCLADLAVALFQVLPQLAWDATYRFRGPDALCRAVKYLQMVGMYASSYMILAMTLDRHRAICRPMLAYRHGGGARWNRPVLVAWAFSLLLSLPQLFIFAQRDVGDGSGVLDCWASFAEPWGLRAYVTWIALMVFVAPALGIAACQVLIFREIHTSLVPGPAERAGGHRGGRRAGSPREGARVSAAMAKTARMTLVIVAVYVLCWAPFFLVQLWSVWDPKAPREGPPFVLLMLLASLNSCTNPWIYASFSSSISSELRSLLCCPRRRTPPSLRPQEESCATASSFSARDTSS
Sequence of vasopressin stimulated adenylate cyclase (V2 -receptors) (P32307 whole entry): as above

SMILES | Ki [1] | Ki [2]
COc1ccc(C[C@@H]2NC(=O)C[C@]3(CC[C@H](C)CC3)SSC[C@@H](C(=O)N3CCC[C@H]3C(=O)N[C@@H](CCCNC(=N)N)C(=O)NCC(N)=O)NC(=O)[C@H](CC(N)=O)NC(=O)[C@H](C(C)C)NC(=O)[C@H](Cc3ccccc3)NC2=O)cc1 [LTyr(Me) GlyNH2] (Y(Me)FVNCPRG-NH2; linker N-5 via X2) | 44 nM | 130 nM
CCOc1ccc(C[C@H]2NC(=O)C[C@]3(CC[C@H](C)CC3)SSC[C@@H](C(=O)N3CCC[C@H]3C(=O)N[C@@H](CCCNC(=N)N)C(=O)NCC(N)=O)NC(=O)[C@H](CC(N)=O)NC(=O)[C@H](C(C)C)NC(=O)[C@H](Cc3ccccc3)NC2=O)cc1 [DTyr(Et) GlyNH2, [1-(4'-methyl-β-mercapto-β,β-cyclopentamethylene propionic acid)-2-(O-ethyl)-D-tyrosine-4-valine-8-arginine]-vasopressin] ([dY](Et)FVNCPRG-NH2; linker N-5 via X2) | 4.2 nM | 13 nM
CCOc1ccc(C[C@H]2NC(=O)C[C@]3(CC[C@H](C)CC3)SSC[C@@H](C(=O)N3CCC[C@H]3C(=O)N[C@@H](CCCNC(=N)N)C(N)=O)NC(=O)[C@H](CC(N)=O)NC(=O)[C@H](C(C)C)NC(=O)[C@H](Cc3ccccc3)NC2=O)cc1 [DTyr(Et) NH2, [1-(4'-methyl-β-mercapto-β,β-cyclopentamethylenepropionic acid)-2-(O-ethyl)-D-tyrosine-4-valine-8-arginine-9-desglycine]-vasopressin] ([dY](Et)FVNCPR-NH2; linker N-5 via X2) | – | 19 nM
